Source: ChEMBL document CHEMBL5576123, “Interaction of Cephalosporins with Human Serum Albumin: A Structural Study” (J Med Chem, 2024)
In brackets after ≈: the same amount, converted by molar mass. Activity calls are given as the source filed them. The calls are words filed in the database; no cut-off is given here.

What was measured:
[1] = Protein binding in plasma (unknown origin); type: ADME, cell-free; conditions: read-out: PPB (converted)
Escherichia coli [2] = assay: Antibacterial activity against Escherichia coli ATCC 25922 assessed as inhibition of bacterial growth at 0 to 8 ug/ml incubated for 24 hrs in presence of HSA by broth microdilution method; type: functional, organism-based; conditions: dose 0-8 µg/ml
Escherichia coli [3] = assay: Antibacterial activity against Escherichia coli ATCC 25922 assessed as inhibition of bacterial growth incubated for 24 hrs in absence of HSA by broth microdilution method; type: functional
Escherichia coli [4] = assay: Antibacterial activity against Escherichia coli ATCC 25922 assessed as inhibition of bacterial growth incubated for 24 hrs in presence of HSA by broth microdilution method; type: functional
Escherichia coli [5] = assay: Ratio of MIC>90 against Escherichia coli ATCC 25922 in presence of HSA to MIC>90 against Escherichia coli ATCC 25922 in absence of HSA; type: functional
Escherichia coli [6] = assay: Antibacterial activity against Escherichia coli ATCC 25922 assessed as inhibition of bacterial growth at 0.6 mM incubated for 24 hrs by broth microdilution method; type: functional, organism-based
Albumin [7] = biological target: T1, Albumin (Homo sapiens, UniProt P02768); assay: Binding affinity to human serum albumin incubated for 18 hrs by equilibrium dialysis method; type: ADME; conditions: isolated protein
T1 sequence (P02768 whole entry): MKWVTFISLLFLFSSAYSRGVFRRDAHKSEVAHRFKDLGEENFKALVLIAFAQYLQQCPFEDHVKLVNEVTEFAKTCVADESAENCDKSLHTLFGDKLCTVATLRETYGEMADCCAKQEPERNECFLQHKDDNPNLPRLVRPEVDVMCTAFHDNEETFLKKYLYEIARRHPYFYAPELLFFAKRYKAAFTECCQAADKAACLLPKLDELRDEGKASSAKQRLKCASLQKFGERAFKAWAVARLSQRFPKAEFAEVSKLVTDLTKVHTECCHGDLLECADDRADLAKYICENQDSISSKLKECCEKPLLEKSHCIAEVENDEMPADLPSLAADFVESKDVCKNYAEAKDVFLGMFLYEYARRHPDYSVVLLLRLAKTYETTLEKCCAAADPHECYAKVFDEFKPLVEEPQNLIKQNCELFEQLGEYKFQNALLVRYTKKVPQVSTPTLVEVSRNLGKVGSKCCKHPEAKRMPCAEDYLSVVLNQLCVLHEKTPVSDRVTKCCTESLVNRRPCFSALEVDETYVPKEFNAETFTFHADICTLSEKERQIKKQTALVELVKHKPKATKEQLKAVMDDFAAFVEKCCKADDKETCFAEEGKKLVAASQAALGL

Albumin [8] = biological target: T1, Albumin; assay: Binding affinity to human serum albumin incubated for 18 hrs in presence of 40 uM bicalutamide by equilibrium dialysis method; type: ADME; conditions: isolated protein
Albumin [9] = biological target: T1, Albumin; assay: Binding affinity to human serum albumin incubated for 18 hrs in presence of 80 uM bicalutamide by equilibrium dialysis method; type: ADME; conditions: isolated protein
Escherichia coli [10] = assay: Antibacterial activity against Escherichia coli ATCC 25922 assessed as inhibition of bacterial growth incubated for 24 hrs in presence of warfarin by broth microdilution method; type: functional

With `CC(C)(O/N=C(\C(=O)N[C@@H]1C(=O)N2C(C(=O)[O-])=C(C[n+]3ccccc3)CS[C@H]12)c1csc(N)n1)C(=O)O` [CEFTAZIDIME] the fraction unbound [1] was 0.91.
Compound `CO/N=C(\C(=O)N[C@@H]1C(=O)N2C(C(=O)O)=C(COC(N)=O)CS[C@H]12)c1ccco1` [CEFUROXIME] has a fraction unbound [1] of 0.5.
With `CO[C@@]1(NC(=O)C2SC(=C(C(N)=O)C(=O)O)S2)C(=O)N2C(C(=O)O)=C(CSc3nnnn3C)CS[C@@H]21` (some centres undefined) [CEFOTETAN] the Activity (Escherichia coli [2]) was “inactive” and the fraction unbound [1] was 0.12.
For `CC=CC1=C(C(=O)O)N2C(=O)[C@@H](NC(=O)[C@H](N)c3ccc(O)cc3)[C@H]2SC1` [CEFPROZIL], the fraction unbound [1] was 0.64.
With `Cc1nnc(SCC2=C(C(=O)O)N3C(=O)[C@@H](NC(=O)Cn4cnnn4)[C@H]3SC2)s1` [CEFAZOLIN] the fraction unbound [1] was 0.2, the MIC90 (Escherichia coli [3]) was 2 µg/mL (≈ 4.4 µM) and the MIC90 (Escherichia coli [4]) was 4 µg/mL. It also gave a Ratio (Escherichia coli [5]) of 2.
`CC1=C(C(=O)O)N2C(=O)[C@@H](NC(=O)[C@H](N)c3ccc(O)cc3)[C@H]2SC1` [CEFADROXIL] gave a fraction unbound [1] of 0.8.
In the case of `C=CC1=C(C(=O)O)N2C(=O)[C@@H](NC(=O)/C(=N\OCC(=O)O)c3csc(N)n3)[C@H]2SC1` [CEFIXIME], the fraction unbound [1] is reported as 0.35.
With `CN1C(=O)CN=C(c2ccccc2)c2cc(Cl)ccc21` the Activity (Escherichia coli [6]) was “inactive”.
With `CO/N=C(\C(=O)N[C@@H]1C(=O)N2C(C(=O)[O-])=C(C[n+]3cccc4c3CCC4)CS[C@H]12)c1csc(N)n1` [CEFPIROME] the fraction unbound [1] was 0.9.
In the case of `Nc1nc(/C(=C/CC(=O)O)C(=O)N[C@@H]2C(=O)N3C(C(=O)O)=CCS[C@H]23)cs1` [CEFTIBUTEN], the fraction unbound [1] is reported as 0.35.
`COCC1=C(C(=O)O)N2C(=O)[C@@H](NC(=O)/C(=N\OC)c3csc(N)n3)[C@H]2SC1` [CEFPODOXIME] showed a fraction unbound [1] of 0.17.
In the case of `CO/N=C(\C(=O)N[C@@H]1C(=O)N2C(C(=O)O)=C(CSc3nc(=O)c(=O)[nH]n3C)CS[C@H]12)c1csc(N)n1` [CEFTRIAXONE], the fraction unbound [1] is reported as 0.05, the MIC90 (Escherichia coli [3]) is reported as at most 0.12 µg/mL and the MIC90 (Escherichia coli [4]) is reported as 1 µg/mL. The K (Albumin [7]) was 8.5 10^4/M, the K (Albumin [8]) was 5.01 10^4/M and the K (Albumin [9]) was 1.3 10^4/M. The MIC90 (Escherichia coli [10]) was 0.25 µg/mL.
`Cn1c(N)c(NC(=O)NCCN)c[n+]1CC1=C(C(=O)O)N2C(=O)[C@@H](NC(=O)/C(=N\OC(C)(C)C(=O)[O-])c3nsc(N)n3)[C@H]2SC1` [CEFTOLOZANE] gave a fraction unbound [1] of 0.8.
In the case of `CO/N=C(\C(=O)N[C@@H]1C(=O)N2C(C(=O)O)=C(/C=C\c3scnc3C)CS[C@H]12)c1csc(N)n1` [CEFDITOREN], the fraction unbound [1] is reported as 0.12.
Compound `CO[C@@]1(NC(=O)Cc2cccs2)C(=O)N2C(C(=O)O)=C(COC(N)=O)CS[C@@H]21` [CEFOXITIN] has a fraction unbound [1] of 0.21.
For `Nc1nc(/C(=N/O)C(=O)N[C@@H]2C(=O)N3C(C(=O)O)=C(/C=C4\CCN([C@@H]5CCNC5)C4=O)CS[C@H]23)ns1` [CEFTOBIPROLE], the fraction unbound [1] was 0.84.
For `CCCCC1C(=O)N(c2ccccc2)N(c2ccccc2)C1=O`, the Activity (Escherichia coli [6]) was “inactive”.
Compound `CO/N=C(\C(=O)N[C@@H]1C(=O)N2C(C(=O)O)=CCS[C@H]12)c1csc(N)n1` [CEFTIZOXIME] has a fraction unbound [1] of 0.7.
With `CCO/N=C(\C(=O)N[C@@H]1C(=O)N2C(C(=O)[O-])=C(Sc3nc(-c4cc[n+](C)cc4)cs3)CS[C@H]12)c1nsc(N)n1` [CEFTAROLINE] the fraction unbound [1] was 0.8.
Compound `CO/N=C(\C(=O)N[C@@H]1C(=O)N2C(C(=O)O)=C(COC(C)=O)CS[C@H]12)c1csc(N)n1` [CEFOTAXIME] has a fraction unbound [1] of 0.5.
`C=CC1=C(C(=O)O)N2C(=O)[C@@H](NC(=O)/C(=N\O)c3csc(N)n3)[C@H]2SC1` gave a fraction unbound [1] of 0.3.
In the case of `CC(O)(CS(=O)(=O)c1ccc(F)cc1)C(=O)Nc1ccc(C#N)c(C(F)(F)F)c1` (centres undefined), the Activity (Escherichia coli [6]) is reported as “inactive”.
In the case of `CO/N=C(\C(=O)N[C@@H]1C(=O)N2C(C(=O)[O-])=C(C[N+]3(C)CCCC3)CS[C@H]12)c1csc(N)n1`, the fraction unbound [1] is reported as 0.8.
In the case of `N[C@@H](C(=O)N[C@@H]1C(=O)N2C(C(=O)O)=C(Cl)CS[C@H]12)c1ccccc1` [CEFACLOR ANHYDROUS], the fraction unbound [1] is reported as 0.75.
